Reference: patent US8614234B2, “Compounds as tyrosine kinase modulators” (Allergan, Inc., priority 2009, dated 2013)

Target: PDGFβ (Homo sapiens (Human), UniProt P09619)
Assay: PDGF stimulated Ca2+ signal in vitro (PDGFβ cellular, FLIPR, NHDF-Ad)
Assay type: cell-based
Settings: PDGF stimulation 10 ng/mL, intracellular calcium

Chain of PDGFβ (P09619 33-1106): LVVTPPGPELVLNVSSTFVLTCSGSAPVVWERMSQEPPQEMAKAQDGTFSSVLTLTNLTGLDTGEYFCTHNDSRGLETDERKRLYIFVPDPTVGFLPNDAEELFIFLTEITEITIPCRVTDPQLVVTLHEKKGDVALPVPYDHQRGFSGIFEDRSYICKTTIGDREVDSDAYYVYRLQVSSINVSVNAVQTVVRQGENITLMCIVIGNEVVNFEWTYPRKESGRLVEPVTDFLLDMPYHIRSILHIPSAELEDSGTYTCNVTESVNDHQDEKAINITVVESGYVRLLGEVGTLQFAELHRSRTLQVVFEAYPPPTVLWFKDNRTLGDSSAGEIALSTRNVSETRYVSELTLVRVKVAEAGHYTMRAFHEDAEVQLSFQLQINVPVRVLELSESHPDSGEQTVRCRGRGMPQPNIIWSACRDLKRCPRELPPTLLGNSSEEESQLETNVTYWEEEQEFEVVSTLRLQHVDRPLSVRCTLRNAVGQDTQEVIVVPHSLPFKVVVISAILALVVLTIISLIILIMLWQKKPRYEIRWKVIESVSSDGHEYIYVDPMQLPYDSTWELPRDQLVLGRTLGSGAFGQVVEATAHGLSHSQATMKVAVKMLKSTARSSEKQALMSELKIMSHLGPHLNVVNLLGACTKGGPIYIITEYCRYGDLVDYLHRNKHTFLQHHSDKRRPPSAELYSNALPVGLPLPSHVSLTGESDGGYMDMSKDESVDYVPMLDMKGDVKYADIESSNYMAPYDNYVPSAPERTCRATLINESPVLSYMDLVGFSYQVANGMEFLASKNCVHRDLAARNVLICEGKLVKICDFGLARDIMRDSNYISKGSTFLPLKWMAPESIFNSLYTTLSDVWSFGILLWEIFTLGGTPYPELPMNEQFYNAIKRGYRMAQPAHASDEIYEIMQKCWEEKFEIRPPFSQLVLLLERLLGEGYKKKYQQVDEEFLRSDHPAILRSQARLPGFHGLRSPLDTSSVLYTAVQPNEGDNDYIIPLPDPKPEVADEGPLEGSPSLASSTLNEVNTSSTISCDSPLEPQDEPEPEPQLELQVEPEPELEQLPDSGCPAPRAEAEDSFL

IC50 [nM]	SMILES
21	Cc1cccc(NC(=O)Nc2ccc(Oc3ccnc(-c4cc(C(=O)N5CCC[C@@H](O)C5)c[nH]4)c3)cc2)c1 (stereo in doubt) [Example 90, 1-{4-[(2-{4-[(3-hydroxypiperidin-1-yl)carbonyl]-1H-pyrrol-2-yl}pyridin-4-yl)oxy]phenyl}-3-(3-methylphenyl)urea]
38	Cc1cccc(NC(=O)Nc2ccc(Oc3ccnc(-c4cc(C(=O)N5CC[C@@H](O)C5)c[nH]4)c3)cc2)c1 (stereo in doubt) [Example 91, 1-{4-[(2-{4-[(3-hydroxypyrrolidin-1-yl)carbonyl]-1H-pyrrol-2-yl}pyridin-4-yl)oxy]phenyl}-3-(3-methylphenyl)urea]
73	Cc1ccoc1C(=O)Nc1cccc(Oc2ccnc(-c3cc(C(=O)NCC(O)CO)c[nH]3)c2)c1 (stereo not shown) [Example 15, N-(2,3-dihydroxypropyl)-5-(4-{3-[(3-methyl-2-furoyl)amino]phenoxy}pyridin-2-yl)-1H-pyrrole-3-carboxamide]
61	Cc1ccoc1C(=O)Nc1cccc(Oc2ccnc(-c3cc(C(=O)NO)c[nH]3)c2)c1 [Example 17, N-hydroxy-5-(4-{3-[(3-methyl-2-furoyl)amino]phenoxy}pyridin-2-yl)-1H-pyrrole-3-carboxamide]
135	Cc1ccc(F)c(NC(=O)c2cccc(Oc3ccnc(-c4cc(C(=O)O)c[nH]4)c3)c2)c1 [Example 19, 5-{4-[3-(2-Fluoro-5-methyl-phenylcarbamoyl)-phenoxy]-pyridin-2-yl}-1H-pyrrole-3-carboxylic acid]
39	Cc1ccoc1C(=O)Nc1cccc(Oc2ccnc(-c3cc(C(=O)OCC(O)CO)c[nH]3)c2)c1 (stereo not shown) [Example 21, 2,3-dihydroxypropyl 5-(4-{3-[(3-methyl-2-furoyl)amino]phenoxy}pyridin-2-yl)-1H-pyrrole-3-carboxylate]
105	Cc1cccc(NC(=O)c2cccc(Oc3ccnc(-c4cc(C(=O)O)c[nH]4)c3)c2)c1 [Example 22, 5-[4-(3-m-Tolylcarbamoyl-phenoxy)-pyridin-2-yl]-1H-pyrrole-3-carboxylic acid]
94	Cc1ccoc1C(=O)Nc1cccc(Oc2ccnc(-c3cc(C(=O)N=S(C)(C)=O)c[nH]3)c2)c1 [Example 30, N-[dimethyl(oxido)-lambda˜4˜-sulfanylidene]-5-(4-{3-[(3-methyl-2-furoyl)amino]phenoxy}pyridin-2-yl)-1H-pyrrole-3-carboxamide]
191	Cc1ccc(F)c(NC(=O)Nc2ccc(Oc3ccnc(-c4cc(C(=O)NCCCC(=O)NCC(O)CO)c[nH]4)c3)cc2)c1 (stereo not shown) [Example 54, N-{4-[(2,3-dihydroxypropyl)amino]-4-oxobutyl}-5-{4-[4-({[(2-fluoro-5-methylphenyl)amino]carbonyl}amino)phenoxy]pyridin-2-yl}-1H-pyrrole-3-carboxamide]
26	Cc1ccc(F)c(NC(=O)Nc2ccc(Oc3ccnc(-c4cc(C(=O)NCCCC(N)=O)c[nH]4)c3)cc2)c1 [Example 55, N-(4-amino-4-oxobutyl)-5-{4-[4-({[(2-fluoro-5-methylphenyl)amino]carbonyl}amino)phenoxy]pyridin-2-yl}-1H-pyrrole-3-carboxamide]
39	Cc1cccc(NC(=O)Nc2ccc(Oc3ccnc(-c4cc(C(=O)NCC(O)CO)c[nH]4)c3)cc2)c1 (stereo not shown) [Example 92, N-(2,3-dihydroxypropyl)-5-{4-[4-({[(3-methylphenyl)amino]carbonyl}amino)phenoxy]pyridin-2-yl}-1H-pyrrole-3-carboxamide]
14	CCNC(=O)c1c[nH]c(-c2cc(Oc3ccc(NC(=O)Nc4cccc(C)c4)cc3)ccn2)c1 [Example 93, N-ethyl-5-{4-[4-({[(3-methylphenyl)amino]carbonyl}amino)phenoxy]pyridin-2-yl}-1H-pyrrole-3-carboxamide]
69	Cc1ccc(F)c(NC(=O)Nc2ccc(Oc3ccnc(-c4cc(C(=O)O)c[nH]4)c3)cc2F)c1 [Example 96, 5-{4-[3-fluoro-4-({[(2-fluoro-5-methylphenyl)amino]carbonyl}amino)phenoxy]pyridin-2-yl}-1H-pyrrole-3-carboxylic acid]
82	Cc1ccc(F)c(NC(=O)Nc2ccc(Oc3ccnc(-c4cc(C(=O)N=S(C)(C)=O)c[nH]4)c3)cc2)c1 [Example 101, N-[dimethyl(oxido)-lambda˜4˜-sulfanylidene]-5-{4-[4-({[(2-fluoro-5-methylphenyl)amino]carbonyl}amino)phenoxy]pyridin-2-yl}-1H-pyrrole-3-carboxamide]
8	COC(=O)[C@@H]1CCCN1CCNC(=O)c1c[nH]c(-c2cc(Oc3ccc(NC(=O)Nc4cc(C)ccc4F)cc3)ccn2)c1 [Example 102, methyl (2S)-1-(2-{[(5-{4-[4-({[(2-fluoro-5-methylphenyl)amino]carbonyl}amino)phenoxy]pyridin-2-yl}-1H-pyrrol-3-yl)carbonyl]amino}ethyl)pyrrolidine-2-carboxylate]
43	Cc1ccc(F)c(NC(=O)Nc2ccc(Oc3ccnc(-c4cc(C(=O)NO)c[nH]4)c3)cc2)c1 [Example 108, 5-{4-[4-({[(2-fluoro-5-methylphenyl)amino]carbonyl}amino)phenoxy]pyridin-2-yl}-N-hydroxy-1H-pyrrole-3-carboxamide]
32	Cc1ccc(F)c(NC(=O)Nc2ccc(Oc3ccnc(-c4cc(C(=O)NCCCO)c[nH]4)c3)cc2)c1 [Example 110, 5-{4-[4-({[(2-fluoro-5-methylphenyl)amino]carbonyl}amino)phenoxy]pyridin-2-yl}-N-(3-hydroxypropyl)-1H-pyrrole-3-carboxamide]
44	Cc1cccc(NC(=O)Nc2ccc(Oc3ccnc(-c4cc(C(=O)O)c[nH]4)c3)cc2)c1 [Example 115, 5-{4-[4-({[(3-methylphenyl)amino]carbonyl}amino)phenoxy]pyridin-2-yl}-1H-pyrrole-3-carboxylic acid]
102	O=C(Nc1ccc(Oc2ccnc(-c3cc(C(=O)O)c[nH]3)c2)cc1)Nc1ccc(Cl)c(C(F)(F)F)c1 [Example 121, 5-(4-{4-[({[4-chloro-3-(trifluoromethyl)phenyl]amino}carbonyl)amino]phenoxy}pyridin-2-yl)-1H-pyrrole-3-carboxylic acid]
85	Cc1ccc(F)c(NC(=O)Nc2ccc(Oc3ccnc(-c4csc(C(=O)O)c4)c3)cc2)c1 [Example 123, 4-{4-[4-({[(2-fluoro-5-methylphenyl)amino]carbonyl}amino)phenoxy]pyridin-2-yl}thiophene-2-carboxylic acid]
91	Cc1ccc(F)c(NC(=O)Nc2ccc(Oc3ccnc(-c4cc(C(=O)NCC(O)CO)c[nH]4)c3)cc2)c1 (stereo not shown) [Example 127, N-(2,3-dihydroxypropyl)-5-{4-[4-({[(2-fluoro-5-methylphenyl)amino]carbonyl}amino)phenoxy]pyridin-2-yl}-1H-pyrrole-3-carboxamide]
32	Cc1ccc(F)c(NC(=O)Nc2ccc(Oc3ccnc(-c4cc(C(=O)OCC(O)CO)c[nH]4)c3)cc2)c1 (stereo not shown) [Example 130, 2,3-dihydroxypropyl 5-{4-[4-({[(2-fluoro-5-methylphenyl)amino]carbonyl}amino)phenoxy]pyridin-2-yl}-1H-pyrrole-3-carboxylate]
